Test results as given in PubChem BioAssay (NCI).
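A five-concentration, 48-hour dose response in 96-well plates underlies each endpoint, interpolated linearly between surrounding concentrations. TGI denotes the concentration required for complete inhibition of growth.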

Assays:
Assay in all cases: DTP human tumour cell line panel, 48 h
[1] = system: HL-60(TB) leukemia
[2] = system: SK-MEL-28 melanoma
[3] = system: HCT-15 colon
[4] = system: A549 NSCLC
[5] = system: SK-OV-3 ovarian
[6] = system: NCI-H522 lung
[7] = system: A498 renal
[8] = system: HCT-116 colon
[9] = system: T-47D breast
[10] = system: NCI-H23 lung
[11] = system: KM12 colon
[12] = system: HT29 colon
[13] = system: MCF7 breast
[14] = system: LOX IMVI melanoma
[15] = system: OVCAR-3 ovarian
[16] = system: IGROV1 ovarian
[17] = system: SF-268 CNS
[18] = system: HCC-2998 colon
[19] = system: OVCAR-8 ovarian
[20] = system: MDA-MB-435

Measured: TGI

CCOC(=O)c1c(N2CCOCC2)ncn(-c2cccc(Cl)c2)c1=O
> 100 µM: [1] | [2] | [3] | [4] | [5] | [6] | [7] | [8] | [9] | [10] | [11] | [12] | [13] | [14] | [15] | [16] | [17] | [18] | [19] | [20]
